According to patent US7326698B2, “Prostaglandin analogs” (Allergan, Inc., priority 2004, dated 2008):

Assays:
hEP4/Gqs5 = target: T1, hEP4/Gqs5 (Homo sapiens, UniProt P35408); assay: FLIPR calcium signal, HEK-293(EBNA) cells; format: cell-based; conditions: read-out: Functional Data (EC50 in nM) hEP4
T1 construct: expressed in transfected cells; host or cells: HEK-293(EBNA)
Description: (§1) Methods for FLIPR™ Studies
(§2) HEK-293(EBNA) cells, stably expressing one type or subtype of recombinant human prostaglandin receptors (prostaglandin receptors expressed: hDP/Gqs5; hEP1; hEP2/Gqs5; hEP3A/Gqi5; hEP4/Gqs5; hFP; hIP; hTP), are cultured in 100 mm culture dishes in high-glucose DMEM medium containing 10% fetal bovine serum, 2 mM 1-glutamine, 250 μg/ml geneticin (G418) and 200 μg/ml hygromycin B as selection markers, and 100 units/ml penicillin G, 100 μg/ml streptomycin and 0.25 μg/ml amphotericin B.
(§3) (b) Calcium Signal Studies On the FLIPR™
(§4) Cells are seeded at a density of 5×10^4 cells per well in Biocoat® Poly-D-lysine-coated black-wall, clear-bottom 96-well plates (Becton-Dickinson) and allowed to attach overnight in an incubator at 37° C. Cells are then washed two times with HBSS-HEPES buffer (Hanks Balanced Salt Solution without bicarbonate and phenol red, 20 mM HEPES, pH 7.4) using a Denley Cellwash plate washer (Labsystems). After 45 minutes of dye-loading in the dark, using the calcium-sensitive dye Fluo-4 AM at a final concentration of 2 μM, plates are washed four times with HBSS-HEPES buffer to remove excess dye leaving 100 μl in each well. Plates are re-equilibrated to 37° C. for a few minutes.
(§5) Cells are excited with an Argon laser at 488 nm, and emission is measured through a 510-570 nm bandwidth emission filter (FLIPR™, Molecular Devices, Sunnyvale, Calif.). Drug solution is added in a 50 μl volume to each well to give the desired final concentration. The peak increase in fluorescence intensity is recorded for each well. On each plate, four wells each serve as negative (HBSS-HEPES buffer) and positive controls (standard agonists: BW245C (hDP); PGE2 (hEP1; hEP2/Gqs5; hEP3A/Gqi5; hEP4/Gqs5); PGF2α, (hFP); carbacyclin (hIP); U-46619 (hTP), depending on receptor). The peak fluorescence change in each drug-containing well is then expressed relative to the controls.
(§6) Compounds are tested in a high-throughput (HTS) or concentration-response (CoRe) format. In the HTS format, forty-four compounds per plate are examined in duplicates at a concentration of 10^−5 M. To generate concentration-response curves, four compounds per plate are tested in duplicates in a concentration range between 10^−5 and 10^−11 M. The duplicate values are averaged. In either, HTS or CoRe format each compound is tested on at least 3 separate plates using cells from different passages to give an n≧3.

hTP = target: T2, hTP (Homo sapiens, UniProt P21731); assay: FLIPR calcium signal, HEK-293(EBNA) cells; format: cell-based; conditions: read-out: Functional Data (EC50 in nM) hTP
T2 construct: expressed in transfected cells; host or cells: HEK-293(EBNA)
T2 sequence (P21731 1-343): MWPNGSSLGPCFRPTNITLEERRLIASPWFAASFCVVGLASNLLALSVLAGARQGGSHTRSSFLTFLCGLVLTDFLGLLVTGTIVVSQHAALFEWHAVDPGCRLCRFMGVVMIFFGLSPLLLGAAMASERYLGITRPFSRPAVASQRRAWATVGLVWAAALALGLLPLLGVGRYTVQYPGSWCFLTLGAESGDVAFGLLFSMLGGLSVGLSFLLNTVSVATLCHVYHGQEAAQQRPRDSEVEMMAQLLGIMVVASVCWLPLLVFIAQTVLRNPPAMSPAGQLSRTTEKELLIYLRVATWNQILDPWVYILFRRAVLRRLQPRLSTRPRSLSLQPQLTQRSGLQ
Description: as §1, §2, §3, §4, §5, §6

hIP = target: T3, hIP (Homo sapiens, UniProt P43119); assay: FLIPR calcium signal, HEK-293(EBNA) cells; format: cell-based; conditions: read-out: Functional Data (EC50 in nM) hIP
T3 construct: expressed in transfected cells; host or cells: HEK-293(EBNA)
T3 sequence (P43119 whole entry): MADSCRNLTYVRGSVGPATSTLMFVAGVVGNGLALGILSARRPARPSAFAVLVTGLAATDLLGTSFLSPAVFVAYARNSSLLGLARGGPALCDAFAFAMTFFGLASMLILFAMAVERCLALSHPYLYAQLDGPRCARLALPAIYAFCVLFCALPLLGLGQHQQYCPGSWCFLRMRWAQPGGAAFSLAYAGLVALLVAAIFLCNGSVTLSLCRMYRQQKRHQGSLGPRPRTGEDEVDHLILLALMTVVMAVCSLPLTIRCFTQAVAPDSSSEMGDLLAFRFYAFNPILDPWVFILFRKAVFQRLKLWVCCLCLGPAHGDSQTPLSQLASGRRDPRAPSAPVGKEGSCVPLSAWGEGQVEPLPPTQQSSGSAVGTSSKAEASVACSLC
Description: as §1, §2, §3, §4, §5, §6

hEP3A/Gqi5 = target: T4, hEP3A/Gqi5 (Homo sapiens, UniProt P43115); assay: FLIPR calcium signal, HEK-293(EBNA) cells; format: cell-based; conditions: read-out: Functional Data (EC50 in nM) hEP3A
T4 construct: expressed in transfected cells; host or cells: HEK-293(EBNA)
T4 sequence (P43115 1-390): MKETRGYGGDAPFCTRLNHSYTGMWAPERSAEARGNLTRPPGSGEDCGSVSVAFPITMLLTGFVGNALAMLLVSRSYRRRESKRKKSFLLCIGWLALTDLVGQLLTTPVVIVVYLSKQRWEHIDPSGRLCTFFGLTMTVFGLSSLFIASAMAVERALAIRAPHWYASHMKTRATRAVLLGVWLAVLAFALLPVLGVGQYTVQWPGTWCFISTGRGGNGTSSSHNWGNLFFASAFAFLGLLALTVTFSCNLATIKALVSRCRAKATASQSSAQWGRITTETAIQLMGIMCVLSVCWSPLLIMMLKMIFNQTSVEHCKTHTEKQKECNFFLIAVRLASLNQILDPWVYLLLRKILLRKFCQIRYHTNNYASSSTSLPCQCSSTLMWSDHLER
Description: as §1, §2, §3, §4, §5, §6

hEP4 = target: T5, hEP4 (Homo sapiens, UniProt P35408); assay: Radioligand binding, HEK-293 cells stably expressing EP4 receptor; conditions: competition vs 5 nM [3H]-PGE2
T5 construct: expressed in transfected cells; host or cells: HEK-293 (membrane fraction)
T5 sequence (P35408 whole entry): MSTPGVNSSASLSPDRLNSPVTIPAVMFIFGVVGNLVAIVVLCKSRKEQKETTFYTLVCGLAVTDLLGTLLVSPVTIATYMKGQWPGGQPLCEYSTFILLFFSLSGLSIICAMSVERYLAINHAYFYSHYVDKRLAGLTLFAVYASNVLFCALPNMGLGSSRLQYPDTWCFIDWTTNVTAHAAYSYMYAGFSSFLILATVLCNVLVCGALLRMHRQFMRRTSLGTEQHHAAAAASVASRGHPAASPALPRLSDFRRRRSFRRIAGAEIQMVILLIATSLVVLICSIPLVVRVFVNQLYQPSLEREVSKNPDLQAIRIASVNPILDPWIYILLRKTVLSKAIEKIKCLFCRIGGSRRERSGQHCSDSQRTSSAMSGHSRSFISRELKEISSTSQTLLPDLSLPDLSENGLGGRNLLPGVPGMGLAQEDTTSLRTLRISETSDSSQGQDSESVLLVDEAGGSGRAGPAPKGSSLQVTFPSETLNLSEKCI
Description: Cells Stably Expressing EP1, EP2, EP4 and FP Receptors
HEK-293 cells stably expressing the human or feline FP receptor, or EP1, EP2, or EP4 receptors are washed with TME buffer, scraped from the bottom of the flasks, and homogenized for 30 sec using a Brinkman PT 10/35 polytron. TME buffer is added to achieve a final 40 ml volume in the centrifuge tubes (the composition of TME is 100 mM TRIS base, 20 mM MgCl2, […]; 10N HCl is added to achieve a pH of 7.4).
The cell homogenate is centrifuged at 19000 r.p.m. for 20 min at 4° C. using a Beckman Ti-60 rotor. The resultant pellet is resuspended in TME buffer to give a final 1 mg/ml protein concentration, as determined by Biorad assay. Radioligand binding competition assays vs. [^3H-]17-phenyl PGF2[…](5 nM) are performed in a 100 μl volume for 60 min. Binding reactions are started by adding plasma membrane fraction. The reaction is terminated by the addition of 4 ml ice-cold TRIS-HCl buffer and rapid filtration through glass fiber GF/B filters using a Brandel cell harvester. The filters are washed 3 times with ice-cold buffer and oven dried for one hour.
[^3H-] PGE2 (specific activity 180 Ci mmol) is used as the radioligand for EP receptors. [^3H] 17-phenyl PGF2[…]is employed for FP receptor binding studies. […] 17-phenyl PGF2[…]and non-specific binding determined with 10^−5M of unlabeled PGE2, or 17-phenyl PGF2[…], according to receptor subtype studied.

T1 sequence (P35408 whole entry): as above

SMILES | EC50 (hEP4/Gqs5) [nM] | further results
O=C(O)CCC/C=C\CN1C(=O)CCCCC1C=CC(O)Cc1ccccc1 (centres unmarked) | 266 | EC50 (hTP): 221 nM
COC(=O)CCCC#CCN1C(=O)CCCCC1CCC(O)Cc1ccccc1 (centres unmarked) | > 10000 | 
O=C(O)CCCCCCN1C(=O)CCCCC1C=CC(O)Cc1ccccc1 (centres unmarked) | > 10000 | 
COC(=O)CCCCCCN1C(=O)CCCCC1C=CC(O)Cc1ccccc1 (centres unmarked) [drawing 40] | > 10000 | 
O=C(O)CCCC#CCN1C(=O)CCCCC1CCC(O)Cc1ccccc1 (centres unmarked) | 2000 | EC50 (hTP): 112 nM
O=C(O)CCCCCCN1C(=O)CCCCC1CCC(O)Cc1ccccc1 (centres unmarked) | 451 | EC50 (hIP): 1640 nM; EC50 (hTP): 549 nM
COC(=O)CCCCCCN1C(=O)CCCCC1C=CC(O)Cc1ccccc1 (centres unmarked) [drawing 36] | > 10000 | 
COC(=O)CCC/C=C\CN1C(=O)CCCCC1CCC(=O)Cc1ccccc1 (centres unmarked) | 13300 | IC50 (hEP4): > 10 µM
O=C(O)CCCCCCN1C(=O)CCCCC1C=CC(=O)Cc1ccccc1 (centres unmarked) | > 10000 | 
COC(=O)CCCCCCN1C(=O)CCCCC1C=CC(=O)Cc1ccccc1 (centres unmarked) | > 10000 | 
O=C(O)CCC/C=C\CN1C(=O)CCCCC1CCC(O)Cc1ccccc1 (centres unmarked) | 116 | IC50 (hEP4): > 10 µM
COC(=O)CCC/C=C\CN1C(=O)CCCCC1C=CC(O)Cc1ccccc1 (centres unmarked) | > 10000 | 

Second part, led by results:

EC50 (hEP4/Gqs5) [nM] | SMILES | further results
> 10000 | O=C(O)CCCCCCN1C(=O)CCCCC1CCC(=O)Cc1ccccc1 (centres unmarked) | 
2390 | O=C(O)CCCC#CCN1C(=O)CCCCC1CCC(=O)Cc1ccccc1 (centres unmarked) | EC50 (hTP): 41 nM
3080 | COC(=O)CCCC#CCN1C(=O)CCCCC1C=CC(O)Cc1ccccc1 (centres unmarked) | 
> 10000 | O=C(O)CCC/C=C\CN1C(=O)CCCCC1CCC(=O)Cc1ccccc1 (centres unmarked) | 
> 10000 | COC(=O)CCCC#CCN1C(=O)CCCCC1CCC(=O)Cc1ccccc1 (centres unmarked) | 
1230 | O=C(O)CCCC#CCN1C(=O)CCCCC1C=CC(O)Cc1ccccc1 (centres unmarked) | EC50 (hTP): 278 nM
3280 | COC(=O)CCCCCCN1C(=O)CCCCC1CCC(O)Cc1ccccc1 (centres unmarked) | EC50 (hEP3A/Gqi5): > 10000 nM
2140 | COC(=O)CCC/C=C\CN1C(=O)CCCCC1CCC(O)Cc1ccccc1 (centres unmarked) | 
> 10000 | O=C(O)CCCC#CCN1C(=O)CCCCC1C=CC(=O)Cc1ccccc1 (centres unmarked) | 
> 10000 | COC(=O)CCCC#CCN1C(=O)CCCCC1C=CC(=O)Cc1ccccc1 (centres unmarked) | 
> 10000 | COC(=O)CCCCCCN1C(=O)CCCCC1CCC(=O)Cc1ccccc1 (centres unmarked) | 
